Earlier results, collected in patent US20070248696A1, “Composition and method for enhancing neuromuscular facilitation and cognitive functions” (priority 2006, published 2007).

Columns and labels:
[1] = in vivo
[2] = relative to vitamin E
[3] = relative to vitamin E; remark: listed apart in the source

Structure (SMILES)	motor performance and coordination in the rotorod and open field tests [1]	more potent than vitamin E in reducing oxidation [2]	more powerful than vitamin E in neutralizing pro-oxidants and free radicals that attack lipids [3]
C[N+](C)(C)CCOP(=O)(O)OP(=O)([O-])OC[C@H]1O[C@@H](n2ccc(N)nc2=O)[C@H](O)[C@@H]1O [CDP-choline, cytidine 5′-diphosphocholine]	improves motor performance and coordination		
O=C(O[C@@H]1Cc2c(O)cc(O)cc2O[C@@H]1c1cc(O)c(O)c(O)c1)c1cc(O)c(O)c(O)c1 [EGCG, (−)-epigallocatechin-3-gallate]		20 times	over 200 times
